Read-outs that look alike come from different tables or passages of the source.
Target: human TrkA (Homo sapiens (Human), UniProt P04629)
Experiment: Human TrkA inhibition assay (Test Example 2)
Type: biochemical
Procedure, shortened: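 Mobility-shift readout of phosphorylated versus unphosphorylated fluorescent peptide gave conversion ratio, normalized to DMSO and no-enzyme wells; IC50 by logistic fit of 10- or 15-point 3-fold dilutions. Conditions: 1 nmol/L enzyme, 15 min compound preincubation, then 500 μmol/L ATP plus 1.5 μmol/L peptide, 120 min, 37 °C.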

[1] = Table 152, human TrkA inhibition, read-out: IC50_nM
[2] = Table 155, human TrkA inhibition, read-out: IC50
[3] = Table 157, human TrkA inhibition, read-out: IC50
[4] = Table 153, human TrkA inhibition, read-out: IC50
[5] = Table 156, human TrkA inhibition, read-out: IC50
[6] = Table 154, human TrkA inhibition, read-out: IC50
[7] = human TrkA 1 nmol/L, ATP 500 μmol/L, 120 min at 37° C., read-out: IC50 values (TrkA phosphorylation inhibition)

human TrkA, sequence (P04629 440-796): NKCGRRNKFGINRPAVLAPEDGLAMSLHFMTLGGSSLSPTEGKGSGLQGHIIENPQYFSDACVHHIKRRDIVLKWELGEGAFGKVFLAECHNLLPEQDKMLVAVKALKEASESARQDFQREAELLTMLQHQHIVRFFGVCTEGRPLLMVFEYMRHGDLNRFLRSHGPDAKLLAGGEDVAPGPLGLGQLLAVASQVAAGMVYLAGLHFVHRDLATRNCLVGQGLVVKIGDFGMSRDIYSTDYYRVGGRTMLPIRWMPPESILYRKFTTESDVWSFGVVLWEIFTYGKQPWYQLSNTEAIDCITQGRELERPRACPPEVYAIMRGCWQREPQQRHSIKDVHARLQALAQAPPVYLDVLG

COCCN1C[C@@H](NC(=O)Nc2c(C)c(C3=CCN(C(=O)OC(C)(C)C)CC3)nn2-c2ccccc2)[C@H](c2ccc(F)c(F)c2)O1 (racemic) [Compound I-29]
IC50 [1]: < 100 nM

COCCN1C[C@@H](NC(=O)Nc2c(C)c(C3=CC(=O)N(C)C(C)(C)C3)nn2-c2ccccc2)[C@H](c2ccnc(F)c2)O1 (racemic) [Compound I-397]
IC50 [2]: < 100 nM

CCN1C[C@@H](NC(=O)Nc2c(C)c(OCCCCO)nn2-c2ccccc2)[C@H](c2ccc(F)c(F)c2)O1 (racemic) [Compound I-670]
IC50 [3]: < 100 nM

CCN1C[C@@H](NC(=O)Nc2c(C)c(-c3ccc4nc(C(N)=O)cn4c3)nn2-c2ccccc2)[C@H](c2ccc(F)c(F)c2)O1 (racemic) [Compound I-611]
IC50 [3]: < 100 nM

COCCN1C[C@@H](NC(=O)Nc2c(C)c(-c3cc(C)c(=O)n(C)c3)nn2-c2ccccc2)[C@H](c2cnc(F)c(F)c2)O1 (racemic) [Compound I-71]
IC50 [4]: < 100 nM

Cc1c(OCC2CCN(C)CC2)nn(-c2ccccc2)c1NC(=O)N[C@@H]1CN(CCF)O[C@H]1c1ccc(F)c(F)c1 (racemic) [Compound I-567]
IC50 [5]: < 100 nM

COCCN1C[C@@H](NC(=O)Nc2c(C)c(OCC(N)=O)nn2-c2ccccc2)[C@H](c2ccnc(F)c2)O1 (racemic) [Compound I-633]
IC50 [3]: < 100 nM

COCCN1C[C@@H](NC(=O)Nc2c(C)c(-c3cnc(N(C)C)nc3)nn2-c2ccccc2)[C@H](c2ccnc(F)c2)O1 (racemic) [Compound I-132]
IC50 [4]: < 100 nM

COCCN1C[C@@H](NC(=O)Nc2c(C)c(-c3cnc(NCC(F)(F)F)nc3)nn2-c2ccccc2)[C@H](c2ccnc(F)c2)O1 (racemic) [Compound I-524]
IC50 [5]: < 100 nM

COCCN1C[C@@H](NC(=O)Nc2c(C)c(-c3cnc(OC)c(C(N)=O)c3)nn2-c2ccccc2)[C@H](c2cnc(F)c(F)c2)O1 (racemic) [Compound I-101]
IC50 [4]: < 100 nM

COCCN1C[C@@H](NC(=O)Nc2c(C)c(-c3ccnc(C(=O)O)c3)nn2-c2ccccc2)[C@H](c2ccnc(F)c2)O1 (racemic) [Compound I-212]
IC50 [6]: < 100 nM

COCCN1C[C@@H](NC(=O)Nc2c(C)c(-c3cnc(OC)c(C(=O)NC4CCS(=O)(=O)CC4)c3)nn2-c2ccccc2)[C@H](c2ccnc(F)c2)O1 (racemic) [Compound I-112]
IC50 [4]: < 100 nM

COCCN1C[C@@H](NC(=O)Nc2c(C)c(-c3cccc(N(C)C)c3)nn2-c2ccccc2)[C@H](c2ccc(F)c(F)c2)O1 [Compound I-450]
IC50 [2]: < 100 nM

Cc1c(-c2cnc3c(cnn3C)c2)nn(-c2ccccc2)c1NC(=O)N[C@@H]1CN(Cc2cnn(C)c2)O[C@H]1c1ccc(F)c(F)c1 (racemic) [Compound I-205]
IC50 [6]: 100 to 1000 nM

COCCN1C[C@@H](NC(=O)Nc2c(C)c(Oc3ccnc(F)c3)nn2-c2ccccc2)[C@H](c2ccnc(F)c2)O1 (racemic) [Compound I-442]
IC50 [2]: 100 to 1000 nM

COCCN1C[C@@H](NC(=O)Nc2c(C)c(-c3cc(F)c4c(c3)NCCO4)nn2-c2ccccc2)[C@H](c2ccnc(F)c2)O1 (racemic) [Compound I-383]
IC50 [2]: < 100 nM

CCN1C[C@@H](NC(=O)Nc2c(C)c(OCC(=O)NC)nn2-c2ccccc2)[C@H](c2ccc(F)c(F)c2)O1 (racemic) [Compound I-646]
IC50 [3]: < 100 nM

COCCN1C[C@@H](NC(=O)Nc2c(C)c(C)nn2-c2ccccc2)[C@H](c2ccnc(F)c2)O1 [Compound I-521]
IC50 [5]: < 100 nM

CCN1C[C@@H](NC(=O)Nc2c(C)c(OCCC3CCN(C)CC3)nn2-c2ccccc2)[C@H](c2ccc(F)c(F)c2)O1 (racemic) [Compound I-672]
IC50 [3]: < 100 nM

Cc1c(-c2cnn(C)c2)nn(-c2ccccc2)c1NC(=O)N[C@@H]1CN(Cc2csnn2)O[C@H]1c1ccccc1 (racemic) [Compound I-2]
IC50 [1]: 100 to 1000 nM

COCCN1C[C@H](NC(=O)Nc2c(C)c(OCC(C)(C)O)nn2-c2ccccc2)[C@@H](c2cnc(F)c(F)c2)O1 [Compound I-83]
IC50 [4]: > 1000 nM

COCCN1C[C@@H](NC(=O)Nc2c(C)c(-c3ccnc(C(=O)NO)c3)nn2-c2ccccc2)[C@H](c2cnc(F)c(F)c2)O1 [Compound I-231]
IC50 [6]: < 100 nM

CNC(=O)c1cc(NC(=O)N[C@@H]2CN(CCOC)O[C@H]2c2ccnc(F)c2)n(-c2ccccc2)n1 (racemic) [Compound I-388]
IC50 [2]: > 1000 nM

COc1ncc(-c2nn(-c3ccccc3)c(NC(=O)N[C@@H]3CN(CCF)O[C@H]3c3ccc(F)c(F)c3)c2C)cn1 (racemic) [Compound I-525]
IC50 [5]: < 100 nM

CNC(=O)c1ccc(-c2nn(-c3ccccc3)c(NC(=O)N[C@@H]3CN(CCOC)O[C@H]3c3cnc(F)c(F)c3)c2C)cn1 (racemic) [Compound I-453]
IC50 [2]: < 100 nM

COCCN1C[C@@H](NC(=O)Nc2c(C)c(-c3cnc(N4C[C@H]5COC[C@@H](C4)N5C)nc3)nn2-c2ccccc2)[C@H](c2ccnc(F)c2)O1 (racemic) [Compound I-422]
IC50 [2]: < 100 nM

COCCN1C[C@@H](NC(=O)Nc2c(C)c(-c3cnc4c(cnn4CC(=O)N4CCN(C)CC4)c3)nn2-c2ccccc2)[C@H](c2ccnc(F)c2)O1 (racemic) [Compound I-467]
IC50 [2]: < 100 nM

COCCN1C[C@@H](NC(=O)Nc2c(C)c(-c3cnc4c(c3)ncn4C)nn2-c2ccccc2)[C@H](c2ccnc(F)c2)O1 (racemic) [Compound I-164]
IC50 [4]: < 100 nM

Cc1c(OCC2CCNCC2)nn(-c2ccccc2)c1NC(=O)N[C@@H]1CN(CCF)O[C@H]1c1ccc(F)c(F)c1 (racemic) [Compound I-560]
IC50 [5]: < 100 nM

CCOc1nn(-c2ccccc2)c(NC(=O)N[C@@H]2CN(CCOC)O[C@H]2c2ccc(F)c(F)c2)c1C [Compound I-519]
IC50 [5]: < 100 nM

COCCN1C[C@@H](NC(=O)Nc2c(C)c(-c3cnc4c(c3)N(C(C)=O)CCO4)nn2-c2ccccc2)[C@H](c2ccnc(F)c2)O1 (racemic) [Compound I-341]
IC50 [2]: < 100 nM

COCCN1C[C@@H](NC(=O)Nc2c(C)c(OCC3CNCCO3)nn2-c2ccccc2)[C@H](c2ccc(F)c(F)c2)O1 (single isomer, unassigned) [Compound I-576]
IC50 [5]: < 100 nM

COCCN1C[C@@H](NC(=O)Nc2c(C)c(-c3cnc4c(c3)OCCO4)nn2-c2ccccc2)[C@H](c2ccc(F)c(F)c2)O1 [Compound I-463]
IC50 [2]: < 100 nM

COCCN1C[C@@H](NC(=O)Nc2c(C)c(-c3cnc4[nH]ncc4c3)nn2-c2ccccc2)[C@H](c2ccnc(F)c2)O1 (racemic) [Compound I-299]
IC50 [7]: 2.1 nM

COCCN1C[C@@H](NC(=O)Nc2c(C)c(-c3cnc4c(c3)c(N3CCN(C)CC3)nn4C)nn2-c2ccccc2)[C@H](c2ccnc(F)c2)O1 (racemic) [Compound I-490]
IC50 [2]: < 100 nM

CCN1C[C@@H](NC(=O)Nc2c(C)c(OC(C)C3CCN(C)CC3)nn2-c2ccccc2)[C@H](c2ccc(F)c(F)c2)O1 (stereo partly shown) [Compound I-679]
IC50 [3]: < 100 nM

COCCN1C[C@@H](NC(=O)Nc2c(C)c(-c3cnc(OC)nc3)nn2-c2ccccc2)[C@H](c2ccnc(F)c2)O1 (racemic) [Compound I-119]
IC50 [7]: 4 nM

COCCN1C[C@@H](NC(=O)Nc2c(C)c(-c3cnc(N4CC(N5CCOCC5)C4)nc3)nn2-c2ccccc2)[C@H](c2ccnc(F)c2)O1 (racemic) [Compound I-583]
IC50 [3]: < 100 nM

COCCN1C[C@@H](NC(=O)Nc2c(C)c(-c3cnc4ncnn4c3)nn2-c2ccccc2)[C@H](c2ccc(F)c(F)c2)O1 (racemic) [Compound I-44]
IC50 [1]: < 100 nM

COCCN1C[C@@H](NC(=O)Nc2c(C)c(-c3cnc4c(cnn4C4CCN(C)CC4)c3)nn2-c2ccccc2)[C@H](c2ccnc(F)c2)O1 (racemic) [Compound I-413]
IC50 [7]: 2.5 nM

COCCN1C[C@@H](NC(=O)Nc2c(C)c(-c3cnc4c(c3)NCC(=O)N4)nn2-c2ccccc2)[C@H](c2ccnc(F)c2)O1 (racemic) [Compound I-356]
IC50 [7]: 1.5 nM

COCCN1C[C@@H](NC(=O)Nc2c(C)c(OCC3COC(C)(C)O3)nn2-c2ccccc2)[C@H](c2ccc(F)c(F)c2)O1 (stereo partly shown) [Compound I-614]
IC50 [3]: < 100 nM

COCCN1C[C@@H](NC(=O)Nc2c(C)c(-c3ccnc(C(=O)OC)c3)nn2-c2ccccc2)[C@H](c2ccnc(F)c2)O1 (racemic) [Compound I-194]
IC50 [6]: < 100 nM

CCN1C[C@@H](NC(=O)Nc2c(C)c(OCC3CN(C(C)=O)CCO3)nn2-c2ccccc2)[C@H](c2ccc(F)c(F)c2)O1 (stereo partly shown) [Compound I-546]
IC50 [5]: < 100 nM

COCCN1C[C@@H](NC(=O)Nc2c(C)c(-c3cc(CO)c(=O)n(C)c3)nn2-c2ccccc2)[C@H](c2cnc(F)c(F)c2)O1 (racemic) [Compound I-81]
IC50 [4]: < 100 nM

COCCN1C[C@@H](NC(=O)Nc2c(C)c(N3CC(c4ccc(F)cc4)C3)nn2-c2ccccc2)[C@H](c2ccnc(F)c2)O1 (racemic) [Compound I-335]
IC50 [2]: < 100 nM

COCCN1C[C@@H](NC(=O)Nc2c(C)c(-c3cnc(C(=O)NC4CC4)c(C)c3)nn2-c2ccccc2)[C@H](c2cnc(F)c(F)c2)O1 [Compound I-254]
IC50 [6]: < 100 nM

COCCN1C[C@@H](NC(=O)Nc2c(C)c(-c3ccc4nnc(C)n4c3)nn2-c2ccccc2)[C@H](c2ccc(F)cc2)O1 (racemic) [Compound I-267]
IC50 [6]: < 100 nM

COCCN1C[C@@H](NC(=O)Nc2c(C)c(-c3cnc(-c4cnn(C)c4)nc3)nn2-c2ccccc2)[C@H](c2ccnc(F)c2)O1 (racemic) [Compound I-368]
IC50 [2]: < 100 nM

COCCN1C[C@@H](NC(=O)Nc2c(C)c(-c3cnc(N4CC(OC)C4)nc3)nn2-c2ccccc2)[C@H](c2ccnc(F)c2)O1 (racemic) [Compound I-489]
IC50 [2]: < 100 nM

Cc1c(-c2cnn(C)c2)nn(-c2ccccc2)c1NC(=O)N[C@@H]1OC(C)(C)O[C@H]1c1ccccc1 (racemic) [Compound I-1]
IC50 [7]: 5200 nM

CCN1C[C@@H](NC(=O)Nc2c(C)c(-c3cnc(C(N)=O)c(F)c3)nn2-c2ccccc2)[C@H](c2ccc(F)c(F)c2)O1 (racemic) [Compound I-612]
IC50 [3]: < 100 nM

— patent publication US10640495B2, “Heterocycle derivatives having TrkA inhibitory activity” (Shionogi & Co., Ltd., priority 2015, dated 2020)
